{
  "source": "paper PMC1951785",
  "about": "“Enlightening Energy Parasitism by Analysis of an ATP/ADP Transporter from Chlamydiae” (PLoS Biology, 2007)",
  "molecules": {"B1": {"name": "PamNTT1 (Candidatus Protochlamydia amoebophila UWE25) (protein)", "chain": "MSQDAKQDFGKWRAFFWPVHGYELKKLLPMFFMFFFISFNYTILRDTKDTLIVTSAGAEAIPFLKSFGVVPAAILFMIIYAKLSNTLSRENLFYVTLLPFIIFFGLFAFVMYPAREVLMPHASAEALKAYLPGGWTGLAAAYENWMYSIFYILAELWGSVVLSLLFWGFANQITRVNEAKRFYSLFGLGANLALLVSGPAIVYVSDIRKHLPANVDAWQISLNYLMGMVVIAGLAILAIYWWINRAVLTDPRFYDLNQEKAPGKKKKAKMSLGESFKFLFTSKYILCLAILVIAYGISINLVEITWKSLVKLQYPNPNDYSTFMGWFSTMTGAVTILMMLFVGGNVIRHKGWGFAALITPVVLLVTGIAFFSFVIFKDHLAGYIAALGTTPLFLAVIFGAAQNIMSKSAKYSLFDPTKEMAYIPLDDESKVKGKAAVDVVGARLGKSGGSIIQMGLLAFGTLATITPYIGAILMVIIAAWIVAARSLSKQFTQLTAEQNIEKNIDKTSEIATS", "notes": "full-length, N-terminal His tag (pET16b)"}},
  "key": {"[1]": {"biological_target": "T1, PamNTT1 (Candidatus Protochlamydia amoebophila, UniProt Q70GF7)", "T1 construct": "gene ntt1; full-length, N-terminal His tag (pET16b)", "T1 sequence (Q70GF7 1-513)": "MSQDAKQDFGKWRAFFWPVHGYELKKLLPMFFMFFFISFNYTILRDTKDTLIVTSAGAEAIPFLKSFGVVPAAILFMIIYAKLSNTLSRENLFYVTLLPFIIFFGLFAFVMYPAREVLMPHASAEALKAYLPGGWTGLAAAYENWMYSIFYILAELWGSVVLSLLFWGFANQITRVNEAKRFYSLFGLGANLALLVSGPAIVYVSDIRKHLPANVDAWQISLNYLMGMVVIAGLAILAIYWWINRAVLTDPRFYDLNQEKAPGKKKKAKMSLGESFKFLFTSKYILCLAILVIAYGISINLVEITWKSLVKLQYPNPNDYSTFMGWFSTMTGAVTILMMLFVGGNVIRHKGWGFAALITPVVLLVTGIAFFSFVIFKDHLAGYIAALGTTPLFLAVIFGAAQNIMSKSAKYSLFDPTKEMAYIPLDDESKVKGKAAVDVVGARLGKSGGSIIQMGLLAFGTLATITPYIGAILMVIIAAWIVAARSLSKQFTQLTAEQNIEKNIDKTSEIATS", "assay": "[α[…]]ADP uptake into proteoliposomes, anion exchange separation", "type": "biochemical", "conditions": "apparent; ADP import in homo-exchange with 10 mM luminal ADP; pH 7.5; 30 °C; labelled compound"}, "[2]": {"substrate": "Nc1ncnc2c1ncn2[C@@H]1O[C@H](COP(=O)(O)OP(=O)(O)OP(=O)(O)O)[C@@H](O)[C@H]1O", "assay": "purified protein", "type": "biochemical, Candidatus Protochlamydia amoebophila", "conditions": "apparent, ATP import in exchange with 10 mM luminal ADP, pH 7.5, 30 °C, labelled compound"}},
  "data": [
    {"molecule": "Nc1ncnc2c1ncn2[C@@H]1O[C@H](COP(=O)(O)OP(=O)(O)O)[C@@H](O)[C@H]1O", "note": "[ADP]", "values": [
      {"measurement": "K M", "setting": "[1]", "value": "Approximately equivalent K M values were estimated for the ADPim/ADPex and ATPim/ATPex homo-exchange mode"}
    ]},
    {"molecule": "B1", "values": [
      {"measurement": "Km", "setting": "[2]", "value": 17, "unit": "µM"}
    ]}
  ]
}
